{"source": "ChEMBL document CHEMBL5696442", "about": "“Discovery of type II inhibitors of TGFβ-activated kinase 1 (TAK1) and mitogen-activated protein kinase kinase kinase kinase 2 (MAP4K2)” (J Med Chem, 2015)", "key": {"[1]": {"biological_target": "T1, Mitogen-activated protein kinase kinase kinase 15 (Homo sapiens) (UniProt Q6ZN16)", "T1 sequence (whole entry)": "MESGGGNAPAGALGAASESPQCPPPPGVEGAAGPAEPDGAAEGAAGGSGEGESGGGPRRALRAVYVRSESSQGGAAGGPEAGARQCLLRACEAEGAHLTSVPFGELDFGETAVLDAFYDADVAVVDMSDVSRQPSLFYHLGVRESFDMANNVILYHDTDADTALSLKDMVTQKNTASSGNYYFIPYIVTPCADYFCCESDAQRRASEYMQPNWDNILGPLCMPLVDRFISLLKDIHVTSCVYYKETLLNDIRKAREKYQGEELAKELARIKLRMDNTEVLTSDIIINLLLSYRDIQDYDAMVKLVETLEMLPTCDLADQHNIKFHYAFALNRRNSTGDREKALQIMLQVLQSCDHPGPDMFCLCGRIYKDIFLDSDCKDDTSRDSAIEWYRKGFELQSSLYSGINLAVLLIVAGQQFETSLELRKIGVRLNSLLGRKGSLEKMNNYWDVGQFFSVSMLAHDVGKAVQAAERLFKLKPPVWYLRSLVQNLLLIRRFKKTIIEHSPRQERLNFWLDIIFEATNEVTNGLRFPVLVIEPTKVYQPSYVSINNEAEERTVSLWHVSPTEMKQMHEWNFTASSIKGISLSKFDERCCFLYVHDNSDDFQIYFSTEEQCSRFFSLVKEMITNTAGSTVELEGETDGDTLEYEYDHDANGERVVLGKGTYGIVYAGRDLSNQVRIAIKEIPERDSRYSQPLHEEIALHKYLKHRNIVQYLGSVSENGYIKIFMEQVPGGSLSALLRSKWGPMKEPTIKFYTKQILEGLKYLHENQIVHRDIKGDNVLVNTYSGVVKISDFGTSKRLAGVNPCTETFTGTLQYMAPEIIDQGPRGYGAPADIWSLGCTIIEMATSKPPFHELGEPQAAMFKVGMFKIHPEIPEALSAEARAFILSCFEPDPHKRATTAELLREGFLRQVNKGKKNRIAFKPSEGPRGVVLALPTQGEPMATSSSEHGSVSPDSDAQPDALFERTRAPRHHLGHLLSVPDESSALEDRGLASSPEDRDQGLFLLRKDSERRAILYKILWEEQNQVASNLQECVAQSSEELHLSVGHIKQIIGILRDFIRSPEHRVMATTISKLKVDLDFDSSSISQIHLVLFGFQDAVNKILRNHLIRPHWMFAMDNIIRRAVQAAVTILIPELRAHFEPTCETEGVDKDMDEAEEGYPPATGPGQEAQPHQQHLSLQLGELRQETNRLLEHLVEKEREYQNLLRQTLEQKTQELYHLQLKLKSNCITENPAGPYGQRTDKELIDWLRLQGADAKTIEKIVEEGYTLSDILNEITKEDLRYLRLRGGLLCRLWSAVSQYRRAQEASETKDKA", "test": "Inhibition of MAP3K15 Lys1 labeling site harbouring IAIKEIPERDSR in human A-375 cells at 0.05 uM by KiNativ Profiling analysis relative to control", "assay_type": "cell-based"}, "[2]": {"biological_target": "Serine/threonine-protein kinase 16 (Homo sapiens) (UniProt O75716)", "sequence (O75716 whole entry)": "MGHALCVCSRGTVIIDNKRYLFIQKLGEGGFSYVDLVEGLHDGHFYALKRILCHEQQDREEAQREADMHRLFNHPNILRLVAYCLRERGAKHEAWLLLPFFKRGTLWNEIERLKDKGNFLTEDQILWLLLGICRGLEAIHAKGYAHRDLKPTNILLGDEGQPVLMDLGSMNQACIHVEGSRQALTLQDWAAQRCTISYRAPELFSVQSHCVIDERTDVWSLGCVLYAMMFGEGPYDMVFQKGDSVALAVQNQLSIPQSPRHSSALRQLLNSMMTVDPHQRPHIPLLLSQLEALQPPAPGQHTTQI", "test": "Inhibition of MPSK1 K2 labeling site in human Huh-7 cells at 10 uM by KiNativ Profiling analysis relative to control", "assay_type": "cell-based"}, "[3]": {"biological_target": "ALK tyrosine kinase receptor (Homo sapiens) (UniProt Q9UM73)", "sequence (Q9UM73 19-1620 limits assumed)": "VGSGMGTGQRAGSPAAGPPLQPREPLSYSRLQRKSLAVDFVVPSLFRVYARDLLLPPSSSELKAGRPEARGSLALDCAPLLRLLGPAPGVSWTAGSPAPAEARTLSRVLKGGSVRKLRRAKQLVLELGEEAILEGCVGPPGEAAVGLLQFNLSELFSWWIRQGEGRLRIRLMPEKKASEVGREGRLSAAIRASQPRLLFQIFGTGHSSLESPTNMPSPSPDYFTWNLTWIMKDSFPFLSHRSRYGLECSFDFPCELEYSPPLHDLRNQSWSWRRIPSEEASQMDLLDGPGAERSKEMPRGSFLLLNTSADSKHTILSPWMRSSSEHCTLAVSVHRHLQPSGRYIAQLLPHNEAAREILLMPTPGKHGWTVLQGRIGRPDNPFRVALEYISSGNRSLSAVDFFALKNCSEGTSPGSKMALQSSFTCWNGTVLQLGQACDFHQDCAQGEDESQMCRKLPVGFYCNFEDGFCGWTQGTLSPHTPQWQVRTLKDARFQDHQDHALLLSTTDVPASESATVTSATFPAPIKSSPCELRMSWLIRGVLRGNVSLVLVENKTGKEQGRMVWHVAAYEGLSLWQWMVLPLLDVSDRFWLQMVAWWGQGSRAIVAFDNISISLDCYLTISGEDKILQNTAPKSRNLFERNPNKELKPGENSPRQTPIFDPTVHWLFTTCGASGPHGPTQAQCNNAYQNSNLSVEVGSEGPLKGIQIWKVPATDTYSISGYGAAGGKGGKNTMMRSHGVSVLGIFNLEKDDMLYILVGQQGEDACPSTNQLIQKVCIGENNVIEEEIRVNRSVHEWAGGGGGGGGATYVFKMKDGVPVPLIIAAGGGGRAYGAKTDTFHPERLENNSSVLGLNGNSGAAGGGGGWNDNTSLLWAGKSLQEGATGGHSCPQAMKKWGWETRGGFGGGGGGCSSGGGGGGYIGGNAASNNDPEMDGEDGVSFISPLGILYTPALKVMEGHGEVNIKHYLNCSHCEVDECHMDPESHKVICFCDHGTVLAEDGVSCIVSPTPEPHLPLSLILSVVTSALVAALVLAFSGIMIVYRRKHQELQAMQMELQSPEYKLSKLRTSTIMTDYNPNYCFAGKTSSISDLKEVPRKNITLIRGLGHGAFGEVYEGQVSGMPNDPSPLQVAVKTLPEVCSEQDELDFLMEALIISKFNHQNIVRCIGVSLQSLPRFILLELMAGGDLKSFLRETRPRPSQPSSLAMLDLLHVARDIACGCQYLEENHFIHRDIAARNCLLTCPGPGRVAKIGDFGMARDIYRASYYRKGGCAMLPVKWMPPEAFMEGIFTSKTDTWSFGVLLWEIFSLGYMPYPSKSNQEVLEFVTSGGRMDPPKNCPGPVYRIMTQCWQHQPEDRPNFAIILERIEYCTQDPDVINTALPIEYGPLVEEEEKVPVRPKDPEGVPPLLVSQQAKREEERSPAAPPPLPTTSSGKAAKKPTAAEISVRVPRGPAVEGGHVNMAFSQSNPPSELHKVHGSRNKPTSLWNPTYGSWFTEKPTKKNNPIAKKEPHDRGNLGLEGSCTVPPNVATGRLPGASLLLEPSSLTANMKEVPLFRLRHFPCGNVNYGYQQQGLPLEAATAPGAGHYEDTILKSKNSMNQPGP", "test": "Inhibition of ALK (unknown origin) at 1 uM by Ambit Kinomescan binding assay relative to control"}, "[4]": {"biological_target": "Non-receptor tyrosine-protein kinase TYK2 (Homo sapiens) (UniProt P29597)", "sequence (P29597 whole entry, the tested form may be a part)": "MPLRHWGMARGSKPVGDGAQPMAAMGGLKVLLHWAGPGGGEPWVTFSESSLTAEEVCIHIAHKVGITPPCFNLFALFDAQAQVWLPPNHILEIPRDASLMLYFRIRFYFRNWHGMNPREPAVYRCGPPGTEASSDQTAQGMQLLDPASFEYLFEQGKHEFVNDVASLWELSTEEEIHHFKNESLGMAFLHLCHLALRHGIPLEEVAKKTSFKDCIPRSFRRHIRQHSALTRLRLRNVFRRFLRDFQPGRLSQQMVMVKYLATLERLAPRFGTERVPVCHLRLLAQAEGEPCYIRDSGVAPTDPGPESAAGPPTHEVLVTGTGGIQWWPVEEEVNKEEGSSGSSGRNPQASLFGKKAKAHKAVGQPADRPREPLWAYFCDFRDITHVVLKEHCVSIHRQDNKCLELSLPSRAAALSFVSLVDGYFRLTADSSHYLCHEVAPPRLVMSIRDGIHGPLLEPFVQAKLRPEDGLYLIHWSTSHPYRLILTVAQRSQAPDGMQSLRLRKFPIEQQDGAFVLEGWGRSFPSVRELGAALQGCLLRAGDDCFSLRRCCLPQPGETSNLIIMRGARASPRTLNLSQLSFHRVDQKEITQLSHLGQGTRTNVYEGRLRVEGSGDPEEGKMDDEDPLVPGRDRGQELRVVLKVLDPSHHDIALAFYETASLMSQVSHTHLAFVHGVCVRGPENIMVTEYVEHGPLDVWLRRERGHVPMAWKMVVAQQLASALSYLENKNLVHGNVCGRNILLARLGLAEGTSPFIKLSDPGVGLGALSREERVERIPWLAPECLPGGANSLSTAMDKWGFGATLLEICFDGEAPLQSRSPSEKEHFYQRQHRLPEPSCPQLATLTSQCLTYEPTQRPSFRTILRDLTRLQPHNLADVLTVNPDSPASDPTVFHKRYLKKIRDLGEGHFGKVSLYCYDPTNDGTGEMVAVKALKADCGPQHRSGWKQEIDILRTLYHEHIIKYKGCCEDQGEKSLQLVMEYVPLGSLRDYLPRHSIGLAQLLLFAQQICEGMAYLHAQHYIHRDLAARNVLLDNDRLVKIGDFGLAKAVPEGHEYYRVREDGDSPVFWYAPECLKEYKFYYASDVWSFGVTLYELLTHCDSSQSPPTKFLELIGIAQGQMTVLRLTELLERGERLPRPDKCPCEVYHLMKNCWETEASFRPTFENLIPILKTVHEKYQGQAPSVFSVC", "test": "Inhibition of TYK2 JH2 pseudokinase domain (unknown origin) at 1 uM by Ambit Kinomescan binding assay relative to control"}, "[5]": {"biological_target": "Cyclin-dependent kinase 1 (Homo sapiens) (UniProt P06493)", "sequence (P06493 whole entry, looked up)": "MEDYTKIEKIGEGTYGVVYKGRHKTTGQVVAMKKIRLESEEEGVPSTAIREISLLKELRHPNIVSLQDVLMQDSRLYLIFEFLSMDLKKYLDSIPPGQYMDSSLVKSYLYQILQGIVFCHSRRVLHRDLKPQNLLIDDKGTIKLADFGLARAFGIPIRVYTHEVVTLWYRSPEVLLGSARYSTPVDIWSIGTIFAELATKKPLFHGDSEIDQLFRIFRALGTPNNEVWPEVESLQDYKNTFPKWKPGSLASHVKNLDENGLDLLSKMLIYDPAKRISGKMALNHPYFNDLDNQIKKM", "test": "Inhibition of CDC2 Lys2 labeling site harbouring DLKPQNLLIDDKGTIK in human A-375 cells at 5 uM by KiNativ Profiling analysis relative to control", "assay_type": "cell-based"}, "[6]": {"biological_target": "T2, Phosphatidylinositol 5-phosphate 4-kinase type-2 beta (Homo sapiens) (UniProt P78356)", "T2 sequence (whole entry)": "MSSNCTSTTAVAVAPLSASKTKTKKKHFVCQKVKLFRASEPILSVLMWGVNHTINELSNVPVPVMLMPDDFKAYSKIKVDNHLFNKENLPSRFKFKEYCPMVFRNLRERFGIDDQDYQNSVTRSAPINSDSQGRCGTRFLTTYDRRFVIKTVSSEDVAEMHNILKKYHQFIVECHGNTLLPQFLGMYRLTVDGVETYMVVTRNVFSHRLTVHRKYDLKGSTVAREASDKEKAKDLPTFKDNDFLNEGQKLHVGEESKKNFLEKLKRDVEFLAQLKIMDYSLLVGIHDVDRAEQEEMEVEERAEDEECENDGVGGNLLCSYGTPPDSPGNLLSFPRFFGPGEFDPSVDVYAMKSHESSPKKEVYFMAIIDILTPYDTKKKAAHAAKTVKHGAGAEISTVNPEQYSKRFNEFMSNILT", "test": "Inhibition of PIP5K2B (unknown origin) at 1 uM by Ambit Kinomescan binding assay relative to control; values are per cent of control"}, "[7]": {"biological_target": "Calcium/calmodulin-dependent protein kinase type II subunit gamma (Homo sapiens) (UniProt Q13555)", "sequence (Q13555 whole entry)": "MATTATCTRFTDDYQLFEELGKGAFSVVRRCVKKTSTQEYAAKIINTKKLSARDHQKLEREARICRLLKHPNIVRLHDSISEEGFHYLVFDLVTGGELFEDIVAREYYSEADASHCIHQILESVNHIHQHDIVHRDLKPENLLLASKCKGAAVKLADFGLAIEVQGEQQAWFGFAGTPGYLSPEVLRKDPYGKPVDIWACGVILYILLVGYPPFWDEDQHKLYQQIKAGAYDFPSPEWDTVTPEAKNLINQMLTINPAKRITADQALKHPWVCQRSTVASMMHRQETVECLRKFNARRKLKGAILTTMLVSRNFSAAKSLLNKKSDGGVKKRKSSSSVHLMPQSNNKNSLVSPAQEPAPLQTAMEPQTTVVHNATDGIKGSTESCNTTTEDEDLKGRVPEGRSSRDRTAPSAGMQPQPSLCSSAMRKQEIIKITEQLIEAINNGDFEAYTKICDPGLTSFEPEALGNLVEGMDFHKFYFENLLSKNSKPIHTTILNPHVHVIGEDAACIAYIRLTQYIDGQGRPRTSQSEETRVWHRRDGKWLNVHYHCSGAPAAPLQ", "test": "Inhibition of CaMK2g Lys1 labeling site harbouring KTSTQEYAAKIINTK in human Huh-7 cells at 1 uM by KiNativ Profiling analysis relative to control", "assay_type": "cell-based"}, "[8]": {"biological_target": "T3, NUAK family SNF1-like kinase 1 (Homo sapiens) (UniProt O60285)", "T3 sequence (whole entry)": "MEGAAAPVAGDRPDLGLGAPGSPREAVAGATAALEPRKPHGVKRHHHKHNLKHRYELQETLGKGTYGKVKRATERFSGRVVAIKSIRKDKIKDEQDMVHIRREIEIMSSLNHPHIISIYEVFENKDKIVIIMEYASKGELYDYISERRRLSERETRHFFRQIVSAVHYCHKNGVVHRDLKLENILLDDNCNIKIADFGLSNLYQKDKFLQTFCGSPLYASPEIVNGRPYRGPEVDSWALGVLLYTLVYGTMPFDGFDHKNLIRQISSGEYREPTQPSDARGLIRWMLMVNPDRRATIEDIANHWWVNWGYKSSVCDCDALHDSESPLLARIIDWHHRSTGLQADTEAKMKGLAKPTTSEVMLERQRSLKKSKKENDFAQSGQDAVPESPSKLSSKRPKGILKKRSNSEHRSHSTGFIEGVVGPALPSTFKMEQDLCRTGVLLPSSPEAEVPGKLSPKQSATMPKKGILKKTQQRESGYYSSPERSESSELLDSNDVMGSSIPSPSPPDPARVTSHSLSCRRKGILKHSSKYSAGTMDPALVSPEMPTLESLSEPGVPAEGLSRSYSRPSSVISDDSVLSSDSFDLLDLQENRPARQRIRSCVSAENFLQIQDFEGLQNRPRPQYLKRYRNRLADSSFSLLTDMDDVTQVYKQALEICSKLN", "test": "Inhibition of NuaK1 Lys2 labeling site in human Huh-7 cell lysate at 1 uM by KiNativ Profiling analysis relative to control", "assay_type": "subcellular"}}, "data": [{"smiles": "CCN1CCN(Cc2ccc(NC(=O)c3ccc(C)c(Oc4ccnc5[nH]ccc45)c3)cc2C(F)(F)F)CC1", "values": [{"measurement": "inhibition", "setting": "[1]", "value": -3.3, "unit": "%"}, {"measurement": "inhibition", "setting": "[2]", "value": 19.2, "unit": "%"}]}, {"smiles": "CCN1CCN(Cc2ccc(NC(=O)c3ccc(C)c(/C=C/c4cnc5[nH]ccc5c4OC)c3)cc2C(F)(F)F)CC1", "values": [{"measurement": "inhibition", "setting": "[3]", "value": 80, "unit": "%"}, {"measurement": "inhibition", "setting": "[4]", "value": 47, "unit": "%"}, {"measurement": "inhibition", "setting": "[5]", "value": -6.1, "unit": "%"}, {"measurement": "residual activity", "setting": "[6]", "value": 12, "unit": "%"}]}, {"smiles": "CNc1cc(Oc2cc(C(=O)Nc3cc(N4CCN(C)CC4)cc(C(F)(F)F)c3)ccc2C)ncn1", "values": [{"measurement": "inhibition", "setting": "[7]", "value": 24.3, "unit": "%"}, {"measurement": "inhibition", "setting": "[8]", "value": -8.6, "unit": "%"}]}]}
